The test system of this test is Mfn2 null MEFs. In words: Mitochondrial elongation (aspect ratio) fusogenicity assay. The note with it: mitochondrial elongation relative to Cpd B (B01 = 100); Mfn2 null MEFs, compound overnight as printed (FIG. 48). Set-up: % long compare to B: dose or concentration left out as unconfirmed. The format is cell-based, mouse. The text has this:
A cultured murine embryonic fibroblast assay system was used in which mitochondrial elongation (an increase in aspect ratio) reflects enhanced mitochondrial fusion.
A pharmacophore model was generated based on the interactions of HR1 and HR2 domains in the calculated structural model of Mfn2 in the closed conformation. The key features included hydrophobic interactions involving Mfn2 HR1: Val372 and Met376, and aromatic interactions and hydrogen bonding involving Mfn2 HR1 His380. […] A library comprising ˜14 million commercially available compounds was prepared in silico and evaluated using PHASE to fit these criteria. Top ranked hits were clustered, and filtered based on pharmacological properties using Qikprop. The top 55 (see TABLE 4) commercially available small molecules conforming to the model were selected for functional screening and purchased in 1 mg aliquots. […] Images were acquired by confocal microscopy. Each compound was scored for fusogenicity (see e.g., FIG. 24A) and % cell death (see e.g., FIG. 24B).
Cells were excited with 408 nm (Hoechst), […] (MitoTracker Green and Calcein AM, GFP), or 637 nm (TMRE, MitoTracker Orange, Ethidium homodimer-1, and AF594-Dextran) laser diodes. For mitochondrial elongation studies mitochondrial aspect ratio (long axis/short axis) was calculated using automated edge detection and Image J software. Mitochondrial depolarization was calculated as % of green mitochondria visualized on MitoTracker Green and TMRE merged images, expressed as green/(green+yellow mitochondria)×100.

The structures appear in SMILES notation.

For the compound `Cn1c(SCC(=O)Nc2sc3c(c2C(=O)NCc2ccccc2)CCCC3)nnc1C1CC1` [1-B5, N-benzyl-2-{2-[(5-cyclopropyl-4-methyl-4H-1,2,4-triazol-3-yl)sulfanyl]acetamido}-4,5,6,7-tetrahydro-1-benzothiophene-3-carboxamide], the “% long compare to B” value is on record as −31%. For `COCCNC(=O)c1c(NC(=O)CSc2nnc(C3CC3)n2C)sc2c1CCCC2` [1-B6, 2-{2-[(5-cyclopropyl-4-methyl-4H-1,2,4-triazol-3-yl)sulfanyl]acetamido}-N-(2-methoxyethyl)-4,5,6,7-tetrahydro-1-benzothiophene-3-carboxamide] the value was 68%; for `CC(Sc1nnc(Cc2cccs2)n1C)C(=O)Nc1sc2c(c1C(N)=O)CCC2` (stereo not shown) [1-B7, 2-[2-({4-methyl-5-[(thiophen-2-yl)methyl]-4H-1,2,4-triazol-3-yl}sulfanyl)propanamido]-4H,5H,6H-cyclopenta[b]thio-phene-3-carboxamide], 41%. `Cc1occc1-c1nnc(SC(C)C(=O)Nc2sc3c(c2C(N)=O)CCC3)n1-c1ccccc1` (stereo not shown) [1-B8, 2-(2-{[5-(2-methylfuran-3-yl)-4-phenyl-4H-1,2,4-triazol-3-yl]sulfanyl}propanamido)-4H,5H,6H-cyclopenta[b]thio-phene-3-carboxamide]: the “% long compare to B” value is 20%. As to `O=C(NCCSCc1ccccc1F)NC1CCCCC1` [1-B10, 1-cyclohexyl-3-(2-{[(2-fluorophenyl)methyl]sulfanyl}ethyl)urea], the “% long compare to B” value turned out to be 6%. For `CC1CCc2c(sc(NC(=O)CSc3nc(C4CC4)n(-c4ccccc4)n3)c2C(N)=O)C1` (stereo not shown) [1-B11, 2-{2-[(5-cyclopropyl-1-phenyl-1H-1,2,4-triazol-3-yl)sulfanyl]acetamido}-6-methyl-4,5,6,7-tetrahydro-1-benzothiophene-3-carboxamide] the value was −12%; for `N#Cc1c(NC(=O)CSc2nnc(C3CC3)n2-c2ccccc2)sc2c1CCCC2` [1-C1, N-(3-cyano-4,5,6,7-tetrahydro-1-benzothiophen-2-yl)-2-[(5-cyclopropyl-4-phenyl-4H-1,2,4-triazol-3-yl)sulfanyl]acetamide], 19%; for `Cc1nnc(SCC(=O)Nc2sc3c(c2C(N)=O)CCC3)n1Cc1ccccc1` [1-C2, 2-{2-[(4-benzyl-5-methyl-4H-1,2,4-triazol-3-yl)sulfanyl]acetamido}-4H,5H,6H-cyclopenta[b]thiophene-3-carboxamide], −18%. Turning to `CC1CCc2c(sc(NC(=O)CSc3nncn3-c3ccccc3)c2C(N)=O)C1` (stereo not shown) [1-C3, 6-methyl-2-{2-[(4-phenyl-4H-1,2,4-triazol-3-yl)sulfanyl]acetamido}-4,5,6,7-tetrahydro-1-benzothiophene-3-carboxamide], the “% long compare to B” value is −9%. As to `NC(=O)c1c(NC(=O)CSc2nncn2-c2ccccc2)sc2c1CCC2` [1-C4, 2-{2-[(4-phenyl-4H-1,2,4-triazol-3-yl)sulfanyl]acetamido}-4H,5H,6H-cyclopenta-[b]thiophene-3-carboxamide], the “% long compare to B” value is given as −13%. Then `Cc1ccccc1-n1cnnc1SCC(=O)Nc1sc2c(c1C(N)=O)CCC2` [1-C5, 2-(2-{[4-(2-methylphenyl)-4H-1,2,4-triazol-3-yl]sulfanyl}acet-amido)-4H,5H,6H-cyclopenta-[b]thiophene-3-carboxamide], with 12%; and `Cn1c(CC2CCS(=O)(=O)C2)nnc1SCC(=O)Nc1sc2c(c1C(N)=O)CCCC2` (stereo not drawn) [1-C6, 2-[2-({5-[(1,1-dioxo-1λ^6-thiolan-3-yl)methyl]-4-methyl-4H-1,2,4-triazol-3-yl}sulfanyl)-acetamido]-4,5,6,7-tetrahydro-l-benzothiophene-3-carboxamide], with 23%. Turning to `CC(Sc1nnc(C2CC2)n1Cc1ccccc1)C(=O)Nc1sc2c(c1C(N)=O)CCC2` (stereo not shown) [1-C7, 2-{2-[(4-benzyl-5-cyclopropyl-4H-1,2,4-triazol-3-yl)sulfanyl]-propanamido}-4H,5H,6H-cyclopenta[b]thiophene-3-carboxamide], the “% long compare to B” value is on record as −9%. With `NC(=O)c1c(NC(=O)CSc2nnc(Cc3cccs3)n2-c2ccccc2)sc2c1CCC2` [1-C8, 2-[2-({4-phenyl-5-[(thiophen-2-yl)methyl]-4H-1,2,4-triazol-3-yl}sulfanyl)acetamido]-4H,5H,6H-cyclopenta[b]thio-phene-3-carboxamide], the “% long compare to B” value is on record as 35%. Then `Cc1occc1-c1nnc(SC(C)C(=O)Nc2sc3c(c2C(N)=O)CCC3)n1C` (stereo not shown) [1-C9, 2-(2-{[4-methyl-5-(2-methylfuran-3-yl)-4H-1,2,4-triazol-3-yl]sulfanyl}propanamido)-4H,5H,6H-cyclopenta[b]thio-phene-3-carboxamide], with −3%. Then `COC(=O)c1c(NC(=O)CSc2nnc(C)n2-c2ccccc2)sc2c1CCC2` [1-C10, methyl 2-{2-[(5-methyl-4-phenyl-4H-1,2,4-triazol-3-yl)sulfanyl]acetamido}-4H,5H,6H-cyclopenta[b]thiophene-3-carboxylate], with 39%.

For the compound `Cn1c(Cc2cccs2)nnc1SCC(=O)Nc1sc2c(c1C(N)=O)CCC2` [1-C11, 2-[2-({4-methyl-5-[(thiophen-2-yl)methyl]-4H-1,2,4-triazol-3-yl}sulfanyl)acetamido]-4H,5H,6H-cyclopenta[b]thio-phene-3-carboxamide], the “% long compare to B” value amounted to 1%. For `CC(Sc1nnc(-c2cccs2)n1C1CC1)C(=O)Nc1sc2c(c1C(N)=O)CCC2` (stereo not shown) [1-C12, 2-(2-{[4-cyclopropyl-5-(thiophen-2-yl)-4H-1,2,4-triazol-3-yl]-sulfanyl}propanamido)-4H,5H,6H-cyclopenta[b]-thiophene-3-carboxamide] the value was 13%; for `CCC(c1nnc(SCC(=O)Nc2sc3c(c2C(N)=O)CCC3)n1Cc1ccccc1)N(C)C` (stereo not shown) [1-D1, 2-[2-({4-benzyl-5-[1-(dimethyl-amino)propyl]-4H-1,2,4-triazol-3-yl}sulfanyl)acetamido]-4H,5H,6H-cyclopenta[b]thio-phene-3-carboxamide], 23%. Consider `COc1ccc(-n2cnnc2SCC(=O)Nc2sc3c(c2C(N)=O)CCC3)cc1` [1-D2, 2-(2-{[4-(4-methoxyphenyl)-4H-1,2,4-triazol-3-yl]sul-fanyl}acetamido)-4H,5H,6H-cyclopenta[b]thiophene-3-carboxamide], for which the “% long compare to B” value is listed as 128%. For `O=C(CSc1nnc2n1CCCCC2)Nc1sc2c(c1C(=O)NCc1ccccc1)CCCC2` [1-D4, N-benzyl-2-(2-{5H,6H,7H,8H,9H-[1,2,4]triazolo[4,3-a]azepin-3-ylsulfanyl}acetamido)-4,5,6,7-tetrahydro-1-benzothiophene-3-carboxamide] the value was 105%; for `CC(Sc1nnc(-c2ccccc2)n1Cc1ccco1)C(=O)Nc1sc2c(c1C(N)=O)CCC2` (stereo not shown) [1-D7, 2-[2-({4-[(furan-2-yl)methyl]-5-phenyl-4H-1,2,4-triazol-3-yl}sulfanyl)propanamido]-4H,5H,6H-cyclopenta[b]thio-phene-3-carboxamide], 92%. For `Cn1c(CC2CCS(=O)(=O)C2)nnc1SCC(=O)Nc1sc2c(c1C(N)=O)CCC2` (stereo not shown) [1-D9, 2-[2-({5-[(1,1-dioxo-1λ^6-thiolan-3-yl)methyl]-4-methyl-4H-1,2,4-triazol-3-yl}sulfanyl)acetamido]-4H,5H,6H-cyclopenta-[b]thiophene-3-carboxamide] the value was 5%; for `CCn1c(SCC(=O)Nc2sc3c(c2C(N)=O)CCC(C)C3)nnc1C1CC1` (stereo not shown) [1-D11, 2-{2-[(5-cyclopropyl-4-ethyl-4H-1,2,4-triazol-3-yl)sulfanyl]acetamido}-6-methyl-4,5,6,7-tetrahydro-1-benzothiophene-3-carboxamide], 6%; for `CC(Sc1nnc2n1CCCCC2)C(=O)Nc1sc2c(c1C(N)=O)CCC2` (stereo not shown) [1-D12, 2-(2-{5H,6H,7H,8H,9H-[1,2,4]triazolo[4,3-a]azepin-3-ylsulfanyl}propanamido)-4H,5H,6H-cyclopenta[b]-thiophene-3-carboxamide], 18%. As for `C=CCn1c(SCC(=O)Nc2sc3c(c2C(N)=O)CCC3)nnc1C1CCCCC1` [1-E1, 2-(2-{[5-cyclohexyl-4-(prop-2-en-1-yl)-4H-1,2,4-triazol-3-yl}sulfanyl]acetamido)-4H,5H,6H-cyclopenta[b]thio-phene-3-carboxamide], the “% long compare to B” value is 38%. Take `COc1ccccc1-n1cnnc1SCC(=O)Nc1sc2c(c1C(N)=O)CCC2` [1-E2, 2-(2-{[4-(2-methoxyphenyl)-4H-1,2,4-triazol-3-yl]sulfanyl}acet-amido)-4H,5H,6H-cyclopenta-[b]thiophene-3-carboxamide]: the “% long compare to B” value came out at 17%. Then `CC1CCc2c(sc(NC(=O)CSc3nnc(C4CC4)n3Cc3ccccc3)c2C(N)=O)C1` (stereo not shown) [1-E3, 2-{2-[(4-benzyl-5-cyclopropyl-4H-1,2,4-triazol-3-yl)sulfanyl]acetamido}-6-methyl-4,5,6,7-tetrahydro-1-benzothiophene-3-carboxamide], with 11%.

The values are drawn from patent publication US10844023B2 (Washington University, priority 2017, dated 2020).
